How the values were obtained:
[1] = system: hepatic stage of P. berghei; test: In vitro activity against P. berghei hepatic stages (luciferase-expressing sporozoites in Huh-7 cells, bioluminescence); assay type: cell-based, Plasmodium berghei; details: Plasmodium berghei, Huh-7, 48 h; for activity at 1 µM / activity at 10 µM: DMSO = 100, read-out: INFECTION Ø screening
Procedure: Activity against the hepatic stage of P. berghei infection was assessed using the human hepatoma cell line Huh-7 (deposited at the Japanese Collection of Research Bioresources under JCRB0403). The protocol was previously comprehensively described by Prudêncio et al. and by Ploemen et al.. […] Cells were seeded in 96-well plates at a density of 1 × 10^4 cells per well in 100 µL of culture medium and incubated at 37 °C with 5% CO2 for approximately 18 h. […] The culture medium was substituted by infection medium with diluted compounds 1 hour in advance of infection. Luciferase-expressing P. berghei sporozoites (PbA-LuciGFPcon spz) were freshly obtained through the dissection of salivary glands from infected female Anopheles stephensi mosquitoes. Sporozoites were added to the cells at 1:1 ratio, i.e., 1 × 10^4 sporozoites were added per well, and then subjected to centrifugation at 1800× g for 5 min. The plate was then incubated for 46 h at 37 °C with 5% CO2, at which time Huh-7 cell confluency was indirectly assessed by the alamarBlue assay (Invitrogen, Waltham, MA, USA), as reported in the manufacturer’s protocol. Parasite load was assessed 48 h post-infection by a bioluminescence assay, as reported by the manufacturer (Biotium, Fremont, CA, USA). GraphPad Prism 8 (GraphPad Software, Inc., La Jolla, CA, USA) was used to obtain IC50 values using nonlinear regression analysis to fit the dose-response curves normalized results.

[2] = system: Huh-7 cell line; test: Huh-7 cell confluency by alamarBlue assay during hepatic-stage test; assay type: cell-based
Procedure: Activity against the hepatic stage of P. berghei infection was assessed using the human hepatoma cell line Huh-7 (deposited at the Japanese Collection of Research Bioresources under JCRB0403). The protocol was previously comprehensively described by Prudêncio et al. and by Ploemen et al.. Briefly, cell culture medium consisted of 1640 RPMI medium supplemented with 10% v/v fetal calf serum, 1% v/v L-glutamine, 1% v/v nonessential amino acids, 1% v/v penicillin/streptomycin, and 10 mM HEPES, pH 7. Cells were seeded in 96-well plates at a density of 1 × 10^4 cells per well in 100 µL of culture medium and incubated at 37 °C with 5% CO2 for approximately 18 h. […] The culture medium was substituted by infection medium with diluted compounds 1 hour in advance of infection. Luciferase-expressing P. berghei sporozoites (PbA-LuciGFPcon spz) were freshly obtained through the dissection of salivary glands from infected female Anopheles stephensi mosquitoes. Sporozoites were added to the cells at 1:1 ratio, i.e., 1 × 10^4 sporozoites were added per well, and then subjected to centrifugation at 1800× g for 5 min. The plate was then incubated for 46 h at 37 °C with 5% CO2, at which time Huh-7 cell confluency was indirectly assessed by the alamarBlue assay (Invitrogen, Waltham, MA, USA), as reported in the manufacturer’s protocol. Parasite load was assessed 48 h post-infection by a bioluminescence assay, as reported by the manufacturer (Biotium, Fremont, CA, USA). GraphPad Prism 8 (GraphPad Software, Inc., La Jolla, CA, USA) was used to obtain IC50 values using nonlinear regression analysis to fit the dose-response curves normalized results.

[3] = system: P. falciparum NF54 ring-stage synchronized cultures; test: In vitro activity against P. falciparum blood stages (flow cytometry, SYBR green I); assay type: cell-based, Plasmodium falciparum; details: Control = 7.76333, 48 h
Procedure: Activity against the blood stage of P. falciparum infection was assessed by flow cytometry analysis following the incubation of either test compounds or the drug vehicle (DMSO) with ring-stage synchronized parasite cultures, as previously described. Stock solutions of the test compounds, as well as of the positive control compound chloroquine, were prepared in DMSO and diluted to test concentrations in complete malaria culture medium (CMCM), i.e., 1640 RPMI medium supplemented with 25 mM HEPES, 2.4 mM L-glutamine, 50 µg/mL gentamicin, 0.5% w/v Albumax, 11 mM glucose, 1.47 mM hypoxanthine, and 37.3 mM NaHCO3. Samples at tested concentration were then incubated with ring-stage synchronized cultures of P. falciparum NF54 at 2.5% hematocrit and at approximately 1% parasitemia in 96-well plates at 37 °C in a 5% CO2 and 5% O2 atmosphere. Forty-eight hours post incubation, parasite load was assessed by flow cytometry, upon staining with the DNA-specific dye SYBR green I. Approximately 100,000 events were analyzed in each flow cytometry measurement.

[4] = system: HepG2 cells; test: Cytotoxicity assessment in vitro (MTT assay); assay type: cell-based; details: c = 10 μM, in %
Procedure: (§1) HepG2 cells of human hepatocellular carcinoma (ATCC HB-8065; passage 20–25), purchased from Health Protection Agency Culture Collections (ECACC, Salisbury, UK), were cultured in Minimum Essential Medium Eagle supplemented with 10% v/v fetal bovine serum and 1% v/v L-glutamine solution (Sigma-Aldrich, St. Louis, MO, USA) at 37 °C in a humidified atmosphere containing 5% CO2. For passaging, the cells were treated with trypsin/EDTA (Sigma-Aldrich, St. Louis, MO, USA) at 37 °C and then harvested. For the cytotoxicity evaluation, the cells treated with the test substances were used, while untreated HepG2 cells served as a control group. The cells were seeded in a 96-well plate at a density of 1 × 10^4 cells per well and incubated for 24 h. All tested compounds were dissolved in DMSO to prepare 10 mM stock solutions and diluted to the desired concentration just before the cell treatment. Cytotoxicity of all studied derivatives was screened at 10 μM concentration, and all samples were measured in triplicates. Positive and negative controls were also included. Plates were incubated for 24 h in a humidified atmosphere containing 5% CO2 at 37 °C. After the incubation, a solution of thiazolyl blue tetrazolium bromide (Sigma-Aldrich, St. Louis, MO, USA) in RPMI 1640 medium without phenol red (BioTech, Prague, Czech Republic) was added and incubated for 3 h in a humidified atmosphere containing 5% CO2 at 37 °C. Afterwards, formazan crystals were dissolved in DMSO, and the absorbance of samples was recorded at 570 nm (Synergy Neo2 Multi-Mode Reader NEO2SMALPHAB; BioTek, Winooski, VT, USA).

[5] = Cytotoxicity assessment in vitro (MTT assay); assay type: cell-based; details: human, HepG2 cells; c = 10 µM, 24 h, MTT; read-out: HepG2 % of cell viability compared to non-treated control (100%)
Procedure: as §1

[6] = at 1 μM, DMSO = 100, in % (unit assumed)
[7] = at 10 μM, DMSO = 100, in % (unit assumed)

## COC1C=CC23c4cc5c(cc4CN(CC2OC(=O)C(C)C)C3C1)OCO5 (centres unmarked) [29b, 11-O-isobutanoylhaemanthamine]
[1]
  activity at 1 µM: 71.4%
  activity at 10 µM: 70.6%
[2]; [6]
  CELL CONFLUENCY Ø screening: 106.7
[2]; [7]
  CELL CONFLUENCY Ø screening: 111.9

## CCN(CC)CCCC(C)Nc1ccnc2cc(Cl)ccc12 (centres unmarked) [CQ, chloroquine, reference compound]
[3]; at 10 nM
  Ø screening, blood stage parasite load: 8.54
[3]; at 500 nM
  Ø screening, blood stage parasite load: 2.057
[3]; at 100 nm
  Ø screening, blood stage parasite load: 2.187

## COC1C=CC23c4cc5c(cc4CN(CC2OC(=O)c2ccc([N+](=O)[O-])cc2)C3C1)OCO5 (centres unmarked) [29k, 11-O-(4-nitrobenzoyl)haemanthamine]
[1]
  activity at 1 µM: 63.6%
  activity at 10 µM: 71%
[2]; [6]
  CELL CONFLUENCY Ø screening: 104.8
[2]; [7]
  CELL CONFLUENCY Ø screening: 91.29

## COc1ccccc1C(=O)OC1CN2Cc3cc4c(cc3C13C=CC(OC)CC23)OCO4 (centres unmarked) [29e, 11-O-(2-methoxybenzoyl)haemanthamine]
[1]
  activity at 1 µM: 67.6%
  activity at 10 µM: 28.8%
[2]; human, 46 h, 1 µM, pH 7
  CELL CONFLUENCY Ø screening: 124.9
[2]; human, 46 h, 10 µM, pH 7
  CELL CONFLUENCY Ø screening: 167.5

## COC1C=CC23c4cc5c(cc4CN(CC2OC(=O)c2cccc([N+](=O)[O-])c2)C3C1)OCO5 (centres unmarked) [29j, 11-O-(3-nitrobenzoyl)haemanthamine]
[1]
  activity at 1 µM: 78.2%
  activity at 10 µM: 48.5%
[2]; human, 46 h, 1 µM, pH 7
  CELL CONFLUENCY Ø screening: 100.8
[2]; human, 46 h, 10 µM, pH 7
  CELL CONFLUENCY Ø screening: 94.5

## COC1C=CC23c4cc5c(cc4CN(CC2OC(=O)c2ccc(C)cc2)C3C1)OCO5 (centres unmarked) [29d, 11-O-(4-methylbenzoyl)haemanthamine]
[1]
  activity at 1 µM: 47.8%
  activity at 10 µM: 29%
[2]; human, 46 h, 1 µM, pH 7
  CELL CONFLUENCY Ø screening: 120.6
[2]; human, 46 h, 10 µM, pH 7
  CELL CONFLUENCY Ø screening: 113.7

## CCC(=O)OC1CN2Cc3cc4c(cc3C13C=CC(OC)CC23)OCO4 (centres unmarked) [29a, 11-O-propionylhaemanthamine]
[1]
  activity at 1 µM: 87.6%
  activity at 10 µM: 71.9%
[2]; [6]
  CELL CONFLUENCY Ø screening: 95.58
[2]; [7]
  CELL CONFLUENCY Ø screening: 90.95

## COc1cccc(C(=O)OC2CN3Cc4cc5c(cc4C24C=CC(OC)CC34)OCO5)c1 (centres unmarked) [29f, 11-O-(3-methoxybenzoyl)haemanthamine]
[1]
  activity at 1 µM: 76.1%
  activity at 10 µM: 29.8%
[2]; [6]
  CELL CONFLUENCY Ø screening: 130.9
[2]; [7]
  CELL CONFLUENCY Ø screening: 134.6

## COc1ccc(C(=O)OC2CN3Cc4cc5c(cc4C24C=CC(OC)CC34)OCO5)cc1 (centres unmarked) [29g, 11-O-(4-methoxybenzoyl)haemanthamine]
[1]
  activity at 1 µM: 49.1%
  activity at 10 µM: 42.6%
[2]; human, 46 h, 1 µM, pH 7
  CELL CONFLUENCY Ø screening: 95.31
[2]; human, 46 h, 10 µM, pH 7
  CELL CONFLUENCY Ø screening: 88.51

## COc1cc(OC)cc(C(=O)OC2CN3Cc4cc5c(cc4C24C=CC(OC)CC34)OCO5)c1 (centres unmarked) [29i, 11-O-(3,5-dimethoxybenzoyl)haemanthamine]
[1]
  activity at 1 µM: 64%
  activity at 10 µM: 27.5%
[2]; human, 46 h, 1 µM, pH 7
  CELL CONFLUENCY Ø screening: 123.1
[2]; human, 46 h, 10 µM, pH 7
  CELL CONFLUENCY Ø screening: 120.8

## COc1cc(NC(C)CCCN)c2ncccc2c1 (centres unmarked) [Primaquine, reference compound]
[1]; read-out: IC50 P. berghei
  IC50: 5.74 ± 0.86 µM

## COc1ccc(C(=O)OC2CN3Cc4cc5c(cc4C24C=CC(OC)CC34)OCO5)cc1OC (centres unmarked) [29h, 11-O-(3,4-dimethoxybenzoyl)haemanthamine]
[1]
  activity at 1 µM: 90.4%
  activity at 10 µM: 46%
[2]; human, 46 h, 1 µM, pH 7
  CELL CONFLUENCY Ø screening: 101.7
[2]; human, 46 h, 10 µM, pH 7
  CELL CONFLUENCY Ø screening: 100.3

## COC1C=CC23c4cc5c(cc4CN(CC2OC(=O)c2cccc(C)c2)C3C1)OCO5 (centres unmarked) [29c, 11-O-(3-methylbenzoyl)haemanthamine]
[1]
  activity at 1 µM: 96.8%
  activity at 10 µM: 28.3%
[2]; human, 46 h, 1 µM, pH 7
  CELL CONFLUENCY Ø screening: 124.3
[2]; human, 46 h, 10 µM, pH 7
  CELL CONFLUENCY Ø screening: 135.7

## COc1cccc2c1C(=O)c1c(O)c3c(c(O)c1C2=O)C[C@@](O)(C(=O)CO)C[C@@H]3O[C@H]1C[C@H](N)[C@H](O)[C@H](C)O1 [Doxorubicine, reference compound]
[4]; DMSO = 100
  Ø screening, HepG2 (sheet Graphs): 65.91
[4]; replicate 1
  1. screening of cytotoxic potential, HepG2 cell line: 62.5
[4]; replicate 2
  2. screening of cytotoxic potential, HepG2 cell line: 75.09
[4]; replicate 3
  3. screening of cytotoxic potential, HepG2 cell line: 60.13
[5]
  viability at 24 h, 10 µM: 66 ± 8%
